Test system: human bronchial epithelial cells
Assay: Ussing chamber assay, Forskolin-induced chloride channel activity
Type: cell-based
Conditions: added after current measurement, all groups
Procedure: The changes in chloride transport across the bronchial epithelial cell membrane was measured by short circuit current output in a Ussing epithelial voltage clamp apparatus (i.e., a Ussing chamber). Specifically, using an established Ussing Chamber procedure (Charles River Laboratories), hCFTR mRNA encapsulated in a liposome comprising ICE, DOPE, and a PEG-modified lipid was incubated for 2 or 4 hours on the apical (mucosal) or basolateral (serosal) sides, or both sides, of human bronchial epithelial cells. A buffer blank also was included as a control, for example, to assess chloride transport by endogenous CFTR in the cells. Next, Forskolin-induced chloride channel activity was measured using the Ussing chamber assay.

O=C(O)c1ccc(/C=C2\SC(=S)N(c3cccc(C(F)(F)F)c3)C2=O)cc1 [CFTR inhibitor-172]
Effect on chloride activity in Ussing chamber: inhibited
